Assay results: article PMC6312923 (Life Science Alliance, 2018)

Experiments:
[1] = tested on: Cdt1 degradation in S/G2, U2OS cells; test: Cdt1-positive cells among cyclin A-positive U2OS cells; format: cell-based, human; details: siCdt2 and/or siSkp2
Description: Next, we examined Cdt1 degradation after the onset of the S phase in the Cdt2^PIP-3A-expressing cells. Cyclin A is present in the S and G2 phase, when Cdt1 should be degraded. Thus, Cdt1 should be present in cells that are negative for cyclin A, and absent in cells that are positive for cyclin A ([Nishitani et al, 2006]; [Xouri et al., 2007a], [2007b]). Cdt1 degradation after the onset of the S phase is carried out by two ubiquitin ligases, CRL1^Skp2 and CRL4^Cdt2. We depleted the substrate recognition subunits, Cdt2 and/or Skp2, by siRNA, and the percentage of Cdt1 positive cells among cyclin A–positive cells was assessed by immunofluorescence. […]
Figure 8. […] The frequency of Cdt1-positive (+) cells among cyclin A–positive (+) cells was calculated (n = 3). […] (D) Cells treated with siCdt2 or control siLuc were measured for their nuclear size (n = 200 for each), and are shown in a scatter plot. […]
For Western blotting, whole-cell lysates were prepared by lysing cell pellets directly in SDS–PAGE buffer. […] Protein levels were analysed by ImageJ software.
Double-stranded RNAs were transfected at 100 nM using Oligofectamine (Invitrogen) or HiPerFect (QIAGEN). […] For Cdt1 silencing in Fig 1A and B, unsychronized HeLa cells were transfected twice with 200 nM of Cdt1 siRNA or control luciferase siRNA using Lipofectamine 2000 with a time interval of 24 h and were analysed 48 h after the second transfection. […]

Cdt1 poly-ubiquitination = test: Poly-ubiquitination of Cdt1 in HEK293 cells; format: cell-based, human; details: for poly-ubiquitinated Cdt1 level: HEK293, MG132 3 h, asynchronous; for poly-ubiquitination of Cdt1 after UV: HEK293, endogenous Cdt2 depleted (siCdt2), MG132 25 μM, UV 20 J/m^2
Description: Figure 6. The Cdt2 PIP box is important for its recruitment to DNA damage sites and replication foci and for poly-ubiquitination activity. (A) HEK293 and stable Cdt2^WT or Cdt2^PIP-3A cells were locally UV irradiated, and stained for XPA and FLAG (Cdt2). XPA-positive spots were examined for FLAG signal, and its frequency was counted (%). More than 50 spots were examined. bar:10 μm. […] Bar: 10 μm. […] (D) Whole-cell extracts were prepared from HEK293 and stably transfected cells of Cdt2^WT or Cdt2^PIP-3A cells, separated into soluble (Sup) and chromatin-containing insoluble (Ppt) fractions, and were examined for indicated proteins. The asterisk indicates nonspecific bands. (E) HEK293 and stably transfected cells of Cdt2^WT or Cdt2^PIP-3A were treated with MG132 for 3 h. Whole-cell extracts (WCE) were prepared, separated into soluble (Sup) and insoluble (Ppt) fractions, and blotted with the indicated antibodies.
Figure S6. Cdt2 PIP box is important for its recruiting to DNA replication sites and its poly-ubiquitination activity in HEK293 cells. […] (B) Poly-ubiquitination after UV irradiation. HEK293 and its stables expressing Cdt2^WT or Cdt2^PIP-3A were transfected with siCdt2 or control (siLuc). Three days later, cells were treated with MG132 (25 μM), and 10 min later irradiated with UV (20 J/m^2). Cells were collected at the indicated time points, and used for Western blotting with indicated antibodies.
To consider this possibility, asynchronously growing control HEK293 cells and cells expressing Cdt2^WT or Cdt2^PIP-3A were treated with proteasome inhibitor MG132 and the levels of poly-ubiquitinated Cdt1 were examined. […] Cdt2^PIP-3A-expressing cells however had reduced level of both poly-ubiquitinated Cdt1 and p21 on chromatin.
Next, we examined the accumulation of poly-ubiquitinated Cdt1 after UV irradiation. For this experiment, the endogenous Cdt2 was depleted with an siRNA targeted to the 3′ UTR to assay for the activity of introduced Cdt2. Cells were treated with MG132, irradiated with UV and the levels of poly-ubiquitinated Cdt1 were monitored by Western blotting. In HEK293 cells treated with control siRNA, poly-ubiquitinated Cdt1 was detected 15 min after irradiation (Fig S6B). […] The defect was rescued by Cdt2^WT expression.

Molecule	rescue of Cdt1 degradation in cell cycle [1]	poly-ubiquitinated Cdt1 level (Cdt1 poly-ubiquitination)	poly-ubiquitination of Cdt1 after UV (Cdt1 poly-ubiquitination)
Cdt2: Cdt2 tagged with GFP, transiently expressed in MCF7 cells	fully complemented the depletion of Cdt2, and also the co-depletion of Skp2	clearly detected	rescued
Cdt2^PIP-3A: Cdt2 with I709, Y712, and F713 all mutated to alanine (protein, UniProt Q9NZJ0 1-730, looked up, variant I709A Y712A F713A, FLAG tag, Cdt2 with I709, Y712, and F713 all mutated to alanine) Denticleless protein homolog: MLFNSVLRQPQLGVLRNGWSSQYPLQSLLTGYQCSGNDEHTSYGETGVPVPPFGCTFSSAPNMEHVLAVANEEGFVRLYNTESQSFRKKCFKEWMAHWNAVFDLAWVPGELKLVTAAGDQTAKFWDVKAGELIGTCKGHQCSLKSVAFSKFEKAVFCTGGRDGNIMVWDTRCNKKDGFYRQVNQISGAHNTSDKQTPSKPKKKQNSKGLAPSVDFQQSVTVVLFQDENTLVSAGAVDGIIKVWDLRKNYTAYRQEPIASKSFLYPGSSTRKLGYSSLILDSTGSTLFANCTDDNIYMFNMTGLKTSPVAIFNGHQNSTFYVKSSLSPDDQFLVSGSSDEAAYIWKVSTPWQPPTVLLGHSQEVTSVCWCPSDFTKIATCSDDNTLKIWRLNRGLEEKPGGDKLSTVGWASQKKKESRPGLVTVTSSQSTPAKAPRAKCNPSNSSPSSAACAPSCAGDLPLPSNTPTFSIKTSPAKARSPINRRGSVSSVSPKPPSSFKMSIRNWVTRTPSSSPPITPPASETKIMSPRKALIPVSQKSSQAEACSESRNRVKRRLDSSCLESVKQKCVKSCNCVTELDGQVENLHLDLCCLAGNQEDLSKDSLGPTKSSKIEGAGTSISEPPSPISPYASESCGTLPLPLRPCGEGSEMVGKENSSPENKNWLLAMAAKRKAENPSPRSPSSQTPNSRRQSGKKLPSPVTITPSSMRKACTAAHRKSQEDFCGPEHSTEL	not fully rescued	reduced	defective in poly-ubiquitination of Cdt1
